Reference: US12521441B2, “Modified IL-2 polypeptides and uses thereof” (Bright Peak Therapeutics AG, priority 2020, dated 2026)

Legend:
[1] = test system: Tregs (CD4+, FoxP3+, CD25Hi); assay: Single-dose pharmacodynamics in mice, Tregs (pSTAT5, Ki67, frequency); format: in vivo, C57Bl/6 mice; details: for Tregs % of pSTAT5 positive cells / Ratio Tregs/CD8+: 1 h after injection; for Ratio Tregs/CD8+: pSTAT5 positive cells
Procedure: (§1) Cell pellets were treated with 1×Lyse/Fix buffer (BD Bioscience, 558050) during 10 min. […] Cells were then permeabilized using cold BD Perm Buffer III and stained with antibodies against either Ki67, Siglec-F, CD4, CD8, FoxP3, CD62L, CD44 or pSTAT5. The FACS (fluorescence activated cell sorting) measurement was done with a Fortessa X-20 Flow Cytometer from BD. For each cell subset indicated below in Table 14, the percentage of pSTAT5 positive cells, and percentage of Ki67 positive cells, cell counts, and cell frequency was determined. [table]

[2] = molecular target: T1, human IL2 receptor beta (CD122) (Homo sapiens, UniProt P14784); assay: Surface plasmon resonance binding to IL-2R beta monomer subunit; details: SPR
T1 construct: purchased Abcam Ab174003
T1 sequence (P14784 27-551): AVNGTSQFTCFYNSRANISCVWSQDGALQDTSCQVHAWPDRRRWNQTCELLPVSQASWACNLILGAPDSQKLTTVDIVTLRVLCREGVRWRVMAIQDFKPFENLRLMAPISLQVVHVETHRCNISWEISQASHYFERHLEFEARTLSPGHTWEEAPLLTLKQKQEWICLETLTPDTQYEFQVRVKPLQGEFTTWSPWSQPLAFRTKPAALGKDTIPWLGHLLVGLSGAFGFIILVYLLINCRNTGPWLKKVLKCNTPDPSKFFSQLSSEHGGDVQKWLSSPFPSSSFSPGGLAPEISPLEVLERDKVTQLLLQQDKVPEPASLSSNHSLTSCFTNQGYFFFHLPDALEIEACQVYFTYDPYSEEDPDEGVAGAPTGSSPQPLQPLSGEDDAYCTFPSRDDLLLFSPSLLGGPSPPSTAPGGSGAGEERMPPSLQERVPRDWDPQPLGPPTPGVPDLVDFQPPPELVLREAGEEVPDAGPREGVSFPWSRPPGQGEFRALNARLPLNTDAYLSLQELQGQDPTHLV
Procedure: (§2) The interaction of the IL-2 polypeptides with human IL-2 receptor subunits were measured with Surface Plasmon Resonance (SPR) technology at Crelux, a Wuxi AppTec company, Martinsried, GER. For these studies, anti-His antibodies were bound by amine coupling onto a CMS chip to capture 42 nM of His tagged human IL2 receptor alpha (Abcam, Ab221397) or of His tagged human IL2 receptor beta (Abcam, Ab174003). In other settings, 42 nM of alpha and beta IL2 receptors were mixed and pre-incubated for 30 min before capture of the alpha/beta heterodimer IL2 receptor.
(§3) Regeneration of the surface back to amine coupled anti His antibody was done after every concentration of analyte. To measure the protein association to the receptors, the samples were injected with a flow rate of 50 ul/min for 30 s, followed by 180s buffer only to detect the dissociation. The used running buffer was 1×PBS with 0.05% Tween20. The relative response units (RU, Y-axis) are plotted against time (s, X-axis) and analyzed in a kinetic 1:1 binding model for the monomer receptor binding and with a kinetic heterogenous ligand fit model for the alpha/beta heterodimer binding.
NT indicates the IL-2 polypeptide was not tested.

CD8 Teff cells (CD8+) = assay: pStat5 induction in human primary pan T-cells, CD8 Teff subset; format: cell-based
Procedure: (§4) An experiment was performed to determine the effect of various IL-2 polypeptides on human T-cell populations. Primary pan T-cells (CD4+, CD8+ and Tregs T cells) were obtained from healthy donor buffy coat by peripheral blood mononuclear cell (PBMC) purification using ficoll gradient centrifugation followed by negative selection with magnetic beads and then cryopreserved until use. […] After incubation, cells were fixed and permeabilized using the Transcription Factor Phospho Buffer kit followed by a surface and intracellular immunostaining for CD4, CD8, CD25, FoxP3, CD45RA and pStat5 to enable cell subset identification and measurement of Stat5 (signal transducer and activator of transcription 5) phosphorylation levels. The FACS (fluorescence activated cell sorting) measurement was done either with a NovoCyte or a Quanteon Flow Cytometer from Acea.
(§5) pStat5 MFI ([…] fluorescence intensity) signals for the T-cell subsets shown in Table 12 were plotted against concentrations of aldesleukin or of modified IL-2 polypeptides. Half maximal effective concentration (EC50) was calculated based on a variable slope, four parameter analysis using GraphPad PRISM software.

CD8+ Teff (CD3+, CD8+) = assay: Single-dose pharmacodynamics in mice, CD8+ Teff (pSTAT5, Ki67, frequency); format: in vivo, C57Bl/6 mice; details: for CD8+ % of pSTAT5 positive cells: 1 h after injection
Procedure: as §1

[3] = molecular target: T2, human IL2 receptor alpha (CD25) (Homo sapiens, UniProt P01589); assay: Surface plasmon resonance binding to IL-2R alpha monomer subunit; details: SPR
T2 construct: purchased Abcam Ab221397
T2 sequence (P01589 22-272): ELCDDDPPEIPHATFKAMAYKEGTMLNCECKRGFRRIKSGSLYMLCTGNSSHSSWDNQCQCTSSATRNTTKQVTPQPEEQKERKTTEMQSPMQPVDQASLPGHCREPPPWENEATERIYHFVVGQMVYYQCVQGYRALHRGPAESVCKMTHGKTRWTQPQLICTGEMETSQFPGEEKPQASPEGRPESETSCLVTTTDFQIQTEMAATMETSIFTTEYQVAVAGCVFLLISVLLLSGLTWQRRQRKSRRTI
Procedure: as §2, §3
NT indicates the IL-2 polypeptide as not tested.

[4] = mouse, in vivo, iv, 0.8 mg/kg
Procedure: A single-dose pharmacokinetic/pharmacodynamic experiment was performed in mice. Naïve, 6-8 weeks old, C57Bl/6 mice (Shanghai SLAC Laboratory Animal Co., LTD, Shanghai, China) received a single bolus intravenous (i.v.) injection of 52 nmoles/kg wild type or of modified IL-2 polypeptides. […] At indicated time points, blood samples were collected in the presence of EDTA either via tail vein sampling or via cardiac puncture (end-point).
Blood samples were immediately processed by centrifugation. Plasma samples were cryopreserved at −80° C. until bioanalysis.
Bioanalysis of plasma samples was performed using a qualified human IL-2 LegendPlex bead assay (Biolegend, #740717, #740368, #740758). Concentrations of wild type and of modified IL-2 polypeptides and the internal standard in samples derived from plasma were determined using human IL-2 LegendPlex bead assay. PK data were subjected to a non-compartmental pharmacokinetic analysis by using the Phoenix WinNonlin software (version 6.3, Pharsight, Mountain View, CA). The linear/log trapezoidal rule was applied in obtaining the PK parameters.
The PK parameters were determined by means of non-compartmental analysis (NCA) using R package “PK”. The area under plasma concentration-time curves (AUC0-last) were calculated using the linear trapezoidal rule on the arithmetic means at the different time points while the extrapolation necessary for the AUC0-inf and AUMC 0-Inf was achieved assuming an exponential decay on the last 3 time points.

[5] = test system: Treg cells (CD4+, CD25Hi, FoxP3+); assay: pStat5 induction in human primary pan T-cells, T-Reg subset; format: cell-based
Procedure: as §4, §5

[6] = molecular target: T3, alpha/beta heterodimer IL2 receptor (Homo sapiens, UniProt P14784); assay: Surface plasmon resonance binding to IL2R alpha/beta heterodimer
T3 construct: purchased Abcam Ab221397; Ab174003
T3 sequence (P14784 27-239 limits assumed): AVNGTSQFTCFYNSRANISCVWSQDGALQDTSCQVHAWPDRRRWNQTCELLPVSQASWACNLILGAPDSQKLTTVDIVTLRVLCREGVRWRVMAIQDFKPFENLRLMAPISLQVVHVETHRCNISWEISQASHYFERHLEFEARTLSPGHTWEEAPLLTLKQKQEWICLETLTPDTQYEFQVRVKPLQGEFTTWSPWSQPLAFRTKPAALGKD
Procedure: as §2, §3
Additional surface plasmon resonance experiments were performed to determine the binding characteristics of the modified IL-2 polypeptides with IL2R alpha/beta heterodimers. The experiments were performed as indicated above, but the monomeric subunits were replaced with the IL2R heterodimers. […] In the table below, NT indicates the composition was not tested.
The secondary interactions between IL-2R heterodimers and the modified IL-2 polypeptides were also measured. […] In the table below, NT indicates the composition was not tested.

[7] = mice, 0.8 mg/kg, at peak time point

Substance: Aldesleukin: aldesleukin (SEQ ID NO: 2), comparator IL-2
- Timepoint at Peak Tregs ([1]; Ki67+ cells, mice, 0.8 mg/kg): 20 h
- Timepoint at Peak Tregs ([1]; frequency within CD3+, mice, 0.8 mg/kg): 20 h
- Tregs % of Ki67+ positive cells [1, 7]: 28.3 ± 3.7%
- Tregs % of Tregs within CD3+ [1, 7]: 3.52 ± 0.4%
- Tregs % of pSTAT5 positive cells ([1]; mice, 0.01 mg/kg): 81.0 ± 5.8%
- Tregs % of pSTAT5 positive cells ([1]; mice, 0.03 mg/kg): 86.9 ± 5.2%
- Tregs % of pSTAT5 positive cells ([1]; mice, 0.1 mg/kg): 91.1 ± 2.9%
- Tregs % of pSTAT5 positive cells ([1]; mice, 0.3 mg/kg): 96.2 ± 1.3%
- Tregs % of pSTAT5 positive cells ([1]; mice, 0.8 mg/kg): 93.3 ± 3.8%
- Ratio Tregs/CD8+ ([1]; 0.01 mg/kg): 3.8
- Ratio Tregs/CD8+ ([1]; 0.03 mg/kg): 2.8
- Ratio Tregs/CD8+ ([1]; 0.1 mg/kg): 3.1
- Ratio Tregs/CD8+ ([1]; 0.3 mg/kg): 1.5
- Ratio Tregs/CD8+ ([1]; 0.8 mg/kg): 1.3
- Ka ([2]; Beta (CD122) monomer): 319000 M⁻¹ s⁻¹
- koff (dissociation rate constant) ([2]; Beta (CD122) monomer): 0.289 s⁻¹
- Kd ([2]; as stated in text (FIG. 3), read-out: Kd, β subunit of the IL-2 receptor): ~900 nM
- EC50 (CD8 Teff cells (CD8+); pStat5 MFI, 20 min to 40 min stimulation): 9.07 nM
- CD8/Tregs (CD8 Teff cells (CD8+); ratio of CD8+ EC50 to Tregs EC50): 477
- CD8+ % of CD8+ within CD3+ (CD8+ Teff (CD3+, CD8+); 0.8 mg/kg, at peak time point): 32.1 ± 3^ %
- CD8+ % of Ki67+ positive cells (CD8+ Teff (CD3+, CD8+); 0.8 mg/kg, at peak time point): 19.6 ± 3^ %
- CD8+ % of pSTAT5 positive cells (CD8+ Teff (CD3+, CD8+); 0.01 mg/kg): 21.3 ± 6.7%
- CD8+ % of pSTAT5 positive cells (CD8+ Teff (CD3+, CD8+); 0.03 mg/kg): 31.3 ± 6.2%
- CD8+ % of pSTAT5 positive cells (CD8+ Teff (CD3+, CD8+); 0.1 mg/kg): 29.6 ± 4.4%
- CD8+ % of pSTAT5 positive cells (CD8+ Teff (CD3+, CD8+); 0.3 mg/kg): 63.2 ± 9.0%
- CD8+ % of pSTAT5 positive cells (CD8+ Teff (CD3+, CD8+); 0.8 mg/kg): 74.1 ± 11%
- Timepoint at Peak Teff (CD8+ Teff (CD3+, CD8+); Ki67+ cells, 0.8 mg/kg): 48 h
- Timepoint at Peak Teff (CD8+ Teff (CD3+, CD8+); frequency within CD3+, 0.8 mg/kg): 36 h
- Ka ([3]; Alpha (CD25) monomer): 6.74e+06 M⁻¹ s⁻¹
- dissociation rate constant (koff) ([3]; Alpha (CD25) monomer): 0.154 s⁻¹
- Kd ([3]; read-out: observed Kd with IL-2Rα): 23 nM
- AUC0-last [4]: 1227 ng·h/mL
- AUCD [4]: 1534 (ng/mL*h)*(mg/kg)
- Cl [4]: 10.85 mL/min/kg
- MRTlast [4]: 36.6 min
- T1/2 [4]: 20.8 min
- EC50 ([5]; pStat5 MFI, 20 min to 40 min stimulation, read-out: Tregs EC50): 0.019 nM
- potency in inducing Treg cells versus Teff cells (in words) ([5]; pStat5 dose response curves): substantially more potent in inducing Treg cells than Teff cells
- Ka ([6]; primary interaction): 8.01e+06 M⁻¹ s⁻¹
- dissociation rate constant (koff, 1/s) ([6]; primary interaction): 0.00175 s⁻¹
- Ka ([6]; secondary interaction): 5.13e+06 M⁻¹ s⁻¹
